Conditions: in water

solubility (mole fraction) (333.15 K) | solubility (mole fraction) (343.15 K) | solubility (mole fraction) (323.15 K) | Compound | solubility (mole fraction) (353.15 K) | solubility (mole fraction) (363.15 K) | solubility (mole fraction) (373.15 K)
– | – | – | O=Cc1ccco1 | 0.028 | 0.0314 | 0.034
– | – | – | O=Cc1ccccc1 | 0.00236 | 0.00261 | 0.0036
0.0051 | 0.0055 | – | OCCc1ccccc1 | 0.0056 | 0.0065 | 0.0065
0.00087 | 0.00099 | 0.00072 | CCCCCC1CCC(=O)O1 (configuration not stated) | 0.00109 | 0.00118 | 0.00128

Reference: BigSolDB 2.1
